According to patent US7678918B2, “Intermediates for imidazonaphthyridines” (3M Innovative Properties Company, priority 1997, dated 2010):

Assays:
[1] = tested on: TNF; test: Cytokine Induction in Human Cells: tumor necrosis factor (TNF) secreted by PBMCs, ELISA; type: cell-based; conditions: 18 to 24 hours
Text: (§1) An in vitro human blood cell system was used to assess cytokine induction by compounds of the invention. Activity is based on the measurement of interferon and tumor necrosis factor (ℑ) (IFN and TNF, respectively) secreted into culture media as described by Testerman et. al. In “Cytokine Induction by the Immunomodulators Imiquimod and S-27609”, Journal of Leukocyte Biology, 58, 365-372 (September, 1995). Blood Cell Preparation for Culture
(§2) Whole blood is collected by venipuncture into EDTA vacutainer tubes from healthy human donors. Peripheral blood mononuclear cells (PBMCs) are separated from whole blood by Histopaque®-1077 (Sigma Chemicals, St. Louis, Mo.) density gradient centrifugation. The PBMCs are suspended at 1.5-2×10^6 cells/mL in RPMI 1640 medium containing 10% fetal bovine serum, 2 mM L-glutamine and 1% penicillin/streptomycin solution (RPMI complete). 1 mL portions of PBMC suspension are added to 24 well flat bottom sterile tissue culture plates.
(§3) The compounds are solubilized in dimethyl sulfoxide (DMSO). The DMSO concentration should not exceed a final concentration of 1% for addition to the culture wells. The compounds are generally tested in a concentration range of from 0.1 to 100 μM.
(§4) The solution of test compound is added to the wells containing 1 mL of PBMCs in media. The plates are covered with plastic lids, mixed gently and then incubated for 18 to 24 hours at 37° C. with a 5% carbon dioxide atmosphere.
(§5) Following incubation the plates are centrifuged for 5-10 minutes at 1000 rpm (˜200×g) at 4° C. The cell culture supernatant is removed with a sterile polypropylene pipet and transferred to a 2 mL sterile cryotube. Samples are maintained at −70° C. until analysis.
Tumor necrosis factor (ℑ) (TNF) concentration is determined using an ELISA kit available from Genzyme, Cambridge, Mass. The results are expressed as pg/mL.

[2] = tested on: IFN; test: Cytokine Induction in Human Cells: interferon (IFN) secreted by PBMCs, A549/encephalomyocarditis bioassay; type: cell-based; conditions: 18 to 24 hours
Text: as §1, §2, §3, §4, §5
Interferon is determined by bioassay using A549 human lung carcinoma cells challenged with encephalomyocarditis. The details of the bioassay method have been described by G. L. Brennan and L. H. Kronenberg in “Automated Bioassay of Interferons in Micro-test Plates”, Biotechniques, June/July 78, 1983, incorporated herein by reference. Briefly stated the method is as follows: A549 cells are incubated with samples and standard interferon dilutions at 37° C. for 24 hours. The incubated cells are then infected with an inoculum of encephalomyocarditis virus. The infected cells are incubated for an additional 24 hours at 37° C. before quantifying for viral cytopathic effect. The viral cytopathic effect is quantified by staining followed by visual scoring of the plates. Results are expressed as alpha reference units/mL based on the value obtained for NIH Human Leukocyte IFN standard.
Note: call rule not given here.

SMILES	TNF induction ([1]; Dose Concentration 0.1 μM)	TNF induction ([1]; Dose Concentration 1.0 μM)	TNF induction ([1]; Dose Concentration 10.0 μM)	TNF induction ([1]; Dose Concentration 100.0 μM)	IFN induction ([2]; Dose Concentration 0.1 μM)	IFN induction ([2]; Dose Concentration 1.0 μM)	IFN induction ([2]; Dose Concentration 10.0 μM)	IFN induction ([2]; Dose Concentration 100.0 μM)
CCCCc1nc2c(N)nc3cccnc3c2n1CCNS(C)(=O)=O [Example 116, N^1-[4-(4-Amino-2-butyl-1H-imidazo[4,5-c][1,5]naphthyridin-1-yl)ethyl]methanesulfonamide]	−	+	+	+	−	+	+	+
CCCCc1nc2c(N)nc3cccnc3c2n1CCNS(=O)(=O)c1ccccc1 [Example 117, N^1-[4-(4-Amino-2-butyl-1H-imidazo[4,5-c][1,5]naphthyridin-1-yl)ethyl]benzenesulfonamide]	−	−	+	+	−	−	+	+
CCCCc1nc2c(N)nc3cccnc3c2n1CCNC(=O)C1(c2ccc(Cl)cc2)CCCC1 [Example 119]		−	−	−		−	−	−
CCCCc1nc2c(N)nc3cccnc3c2n1CCNC(=O)COCc1ccccc1 [Example 121]		+	+	+		+	+	+
CCCCc1nc2c(N)nc3cccnc3c2n1CCNC(=O)CCCCCCCCC(=O)OC [Example 122]		−	+	+		−	+	+
CCCCc1nc2c(N)nc3cccnc3c2n1CCNC(=O)CC1CCCC1 [Example 124]		−	+	+		+	+	+
CCCCc1nc2c(N)nc3cccnc3c2n1CCNC(=O)c1cc(C(F)(F)F)cc(C(F)(F)F)c1 [Example 125]		−	+	+		+	+	+
CCCCc1nc2c(N)nc3cccnc3c2n1CCNC(=O)c1c(OC)cccc1OC [Example 128]		−	±	+		±	+	+
CCCCc1nc2c(N)nc3cccnc3c2n1CCNC(=O)c1ccc(F)cc1 [Example 129]		+	+	+		+	+	+
CCCCc1nc2c(N)nc3cccnc3c2n1CCNC(=O)CC(C)(C)C [Example 135]		−	+	+		−	+	+
CCCCc1nc2c(N)nc3cccnc3c2n1CCNC(=O)C1CC1 [Example 136]		−	+	+		+	+	+
CCCCc1nc2c(N)nc3cccnc3c2n1CCNC(=O)C1CCCC1 [Example 137]		−	±	+		+	+	+
CCCCc1nc2c(N)nc3cccnc3c2n1CCNC(=O)CCC1CCCC1 [Example 138]		+	+	+		+	+	+
CCCCc1nc2c(N)nc3cccnc3c2n1CCNC(=O)c1ccc(C#N)cc1 [Example 139]		−	+	+		+	+	+
